Values of other authors as cited in patent publication US11129837B2, “Salicylate compound composition” (Innovate Pharmaceuticals Limited, priority 2014, dated 2021).

Legend:
glioma stem cells = settings: versus normal glial cells or neural stem cells
rat stomachs = settings: for effect on PGE2: given either orally or subcutaneously
cancer = settings: daily aspirin
[1] = tested on: PGE2 synthesis in C6 cells; settings: high and low dose
[2] = tested on: malignant glioblastoma RG2 cells; settings: administered the day before tumour cell inoculation and in established tumours
colorectal cancer = settings: daily ingestion over an 8-10 year period, at any dose
[3] = human patients

Structure (SMILES)	growth of glioma stem cells in culture (glioma stem cells)	effect on PGE2 (rat stomachs)	apoptosis (A172 glioblastoma cells)	reduction of cancer mortality (cancer)	gastric damage (rat stomachs; given orally or subcutaneously)	PGE2 synthesis [1]	growth of RG2 glioblastoma cells in rat [2]	reduction of CRC-associated mortality (colorectal cancer) [%]	reduction of the risk of colorectal cancer (colorectal cancer) [%]	maximum tolerated dose [3]
CC(=O)OCC(COC(C)=O)OC(C)=O [Glycerin triacetate, 1,3-Diacetyloxypropan-2-yl acetate]	slowing the growth	–	–	–	–	–	–	–	–	–
COc1ccc2c(c1)c(CC(=O)O)c(C)n2C(=O)c1ccc(Cl)cc1 [Indomethacin]	–	decrease PGE2	–	–	–	–	–	–	–	–
CC(=O)Oc1ccccc1C(=O)O [aspirin, 2-(acetoxy)benzoic acid]	–	decrease PGE2	induced significant apoptosis	around 20%	only caused damage when given orally	directly inhibited PGE2 synthesis	significantly inhibited the growth	35	24	about 4 g
